Measurements: PubChem BioAssay AID504672 (Sanford-Burnham Center for Chemical Genomics, 2011)
pIC50: −log10 of the molar value. Active and inactive are the calls of the source. Cut-off read from the data, not from the text of the source: active = IC50 below about 71 µM; inactive = the rest.

test system: S. cerevisiae tim10 strain, luminescence counterscreen; experiment: TIM10 strain luminescence inhibitors – S. cerevisiae, uHTS hits, counter-screen for tim23-1 inhibitor project, dose response (AID 504672);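 note: yeast grew roughly 22 hours at 25 °C before the luminescence read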

| SMILES | pIC50 | IC50 |
| --- | --- | --- |
| COc1cc(C(=O)N/N=C/c2coc3ccc(Cl)cc3c2=O)ccc1O | 5.18 | – |
| COc1cccc(NC(=O)c2ccccc2)c1 | 5.47 | – |
| CCOc1nc2ccccc2cc1C=O | 5.77 | – |
| COc1ccc(CCN(/C=C2\Sc3ccccc3C2=O)C(C)=O)cc1OC | 4.58 | – |
| COc1ccc(N2CCC(CNC(=S)Nc3ccc(C)cc3C)C2)cc1 (centres undefined) | 4.74 | – |
| Cn1c(=O)c(C(=O)Nc2ncccn2)c(O)c2ccccc21 | 5.32 | – |
| N=c1c2c(-c3ccccc3)c(-c3ccccc3)n(Cc3ccco3)c2ncn1Cc1ccccc1 | 4.87 | – |
| N#C/C(C(N)=O)=c1/ccc2c(c1)N1C3=C(CCCC3)CC3CCCCC31N=2 (centres undefined) | 5.07 | – |
| O=C1Nc2ccccc2/C1=C/c1ccccc1Cl | 5.09 | – |
| N=c1c2c(-c3ccccc3)c(-c3ccccc3)n(Cc3ccco3)c2ncn1Cc1ccco1 | 4.84 | – |
| Cc1ccc(NC(=O)c2ccc3c(c2)OCCO3)cc1C | 5.38 | – |
| Cc1ccc(NC(=O)c2nc(S(=O)(=O)Cc3ccccc3C)ncc2Cl)cc1C | 5.23 | – |
| O=[N+]([O-])c1cc(O)c2ncccc2c1 | 5.11 | – |
| Oc1ccc2ccccc2c1/C=N/c1nccs1 | 5.07 | – |
| c1cnc2c(c1)ccc1cccnc12 | 4.91 | – |
| Cc1ccc2nc(NC(=O)Cn3nc(C)c([N+](=O)[O-])c3C)sc2c1 | 4.74 | – |
| C(=C\c1ccccc1)/C=N/Nc1nc2ccccc2[nH]1 | 4.41 | – |
| Cc1nc2ccccc2n1/N=C/c1ccc([N+](=O)[O-])s1 | 5.67 | – |
| COc1ccc(-c2cc(-c3ccccc3O)[nH]n2)cc1 | 4.91 | – |
| CC[C@@]1(c2ccccc2OC)ON(c2ccccc2C(F)(F)F)C1=O | 5.37 | – |
| CCOC(=O)NNc1ccc2nonc2c1[N+](=O)[O-] | 4.99 | – |
| Cc1ccc(-c2nc3ccccc3[nH]2)s1 | 4.79 | – |

| SMILES | pIC50 | IC50 |
| --- | --- | --- |
| Cc1cc(Nc2ccccc2)nn1C(=O)c1ccccc1 | 4.95 | – |
| O=C(NCc1cccnc1)/C(=C\c1ccc(-c2ccc(Br)cc2)o1)S(=O)(=O)c1ccccc1 | 5.24 | – |
| O=Cc1ccccc1OCc1ccc2c(c1)OCO2 | 5.25 | – |
| N=C1/C(=C\c2coc3ccccc3c2=O)C(=O)N=C2SC=CN12 | 5.13 | – |
| O=C1c2ccccc2C(=O)N1c1nc(-c2cccs2)cs1 | 5.19 | – |
| Cc1ccccc1[C@@]1(C)ON(c2ccccc2C(F)(F)F)C1=O | 5.43 | – |
| O=C(Nc1ccc(OC(F)(F)F)cc1)N1CCN(c2ccnc3cc(Cl)ccc23)CC1 | 4.99 | – |
| CCOC(=O)c1ccc(NC(=O)CSc2nc(=O)n3cccc(C)c3n2)cc1 | 4.27 | – |
| CC1(C)OC(=O)C(=Cc2ccc[nH]2)C(=O)O1 | 5.13 | – |
| O=C(Nc1ccc(-c2cn3ccccc3n2)cc1)c1ccco1 | 4.76 | – |
| Cc1ccccc1C(=O)Oc1cccc2c(O)cccc12 | 4.86 | – |
| O=C(N/N=C/c1cc(Br)cc(Br)c1O)c1cccc(N2CCCC2=O)c1 | 5.39 | – |
| COc1ccc(NC(=O)C#Cc2ccccc2)cc1 | 5.17 | – |
| Cc1ccc(Nc2cc(C)c3ccc(O)cc3n2)cc1C | 4.57 | – |
| CCOC(=O)c1c(C)oc2c1c(C(c1cccnc1)N1CCCCC1)c(O)c1ccccc12 (centres undefined) | 4.44 | – |
| O=C(Nc1ccc2nc(-c3ccccc3)[nH]c2c1)c1cccs1 | 5.51 | – |
| NC(=S)N/N=C/c1coc2ccc(Br)cc2c1=O | 5.24 | – |
| Fc1ccccc1-c1cc2cc3c(cc2cn1)OCO3 | 4.60 | – |
| Cc1ccc(-c2nnc(N3CCC(C)CC3)c3ccccc23)cc1 | 4.92 | – |
| Cc1ccc(Nc2nc(-c3cccnc3)nc3ccccc23)cc1 | 4.18 | – |
| O=C(NC(=S)NC(=O)c1ccccc1F)c1ccccc1F | 5.08 | – |
| O=C(Nc1nccs1)c1ccc(Cl)s1 | 4.88 | – |

| SMILES | pIC50 | IC50 |
| --- | --- | --- |
| Cc1ccc2nc(NC(=O)COC(=O)c3cccnc3)sc2c1 | 5.20 | – |
| O=C(COC(=O)CC1CCCC1)Nc1ccc(Cl)cc1 | 5.10 | – |
| O=C(NCc1ccc2c(c1)OCO2)c1c(O)nc2sccn2c1=O | 5.79 | – |
| COc1cccc(Nc2nc3ccc(OC)cc3s2)c1 | 4.95 | – |
| O=C(Nc1ccc2oc(-c3ccccc3)nc2c1)c1cccnc1 | 4.97 | – |
| O=c1oc(Cl)c(Cl)c2ccccc12 | 4.70 | – |
| CC1CCN(c2ccc(-c3cccs3)nn2)CC1 | 5.08 | – |
| CC1(C)CC(=O)C=C(c2cccc(Cl)c2O)C1 | 4.88 | – |
| Cc1[nH]c2ccccc2c1C(=O)/C=C/c1ccccc1 | 4.89 | – |
| CC(C)CCN1C(=O)c2cccc3c(N)ccc(c23)C1=O | 4.97 | – |
| CO/C(N)=C(\C#N)N=Cc1ccccc1Cl | 4.11 | – |
| COc1cccc(CNn2c(-c3cccc(C)c3)nc3ccccc3c2=O)c1O | 4.89 | – |
| CCCCc1cc(O)c(CCCC)c(O)c1 | 5.92 | – |
| COc1cc2c3c(c1)C(C)=CC(C)(C)N3C(=O)C2=O | 4.80 | – |
| Cn1c(-c2sc3ccccc3c2Cl)n[nH]c1=S | 5.24 | – |
| O=C1OC(c2ccccc2)=N/C1=C\C=C\c1ccco1 | – | > 100 µM (inactive) |
| Nc1ccc2nc(SCc3ccccc3F)sc2c1 | 4.69 | – |
| CC1CCc2c(c3ccccc3n2C(=O)CCl)C1 (centres undefined) | 5.29 | – |
| COC(=O)c1ccc2nc(NC(=O)C3CC3)sc2c1 | 4.82 | – |
| O=C(N/N=C/c1ccc(Br)s1)c1cccs1 | 4.64 | – |
